Measured values reported in ChEMBL document CHEMBL1201862, “PubChem BioAssay data set” (2004).
Activity calls are given as the source filed them.

Experiments:
Format in all cases: functional
[1] = molecular target: T1, Sentrin-specific protease 8 (Homo sapiens, UniProt Q96LD8); test: inhibition of human SENP8 cleavage activity – biochemical, luminescence, SAR follow-up (AID 504501)
T1 sequence (Q96LD8 whole entry): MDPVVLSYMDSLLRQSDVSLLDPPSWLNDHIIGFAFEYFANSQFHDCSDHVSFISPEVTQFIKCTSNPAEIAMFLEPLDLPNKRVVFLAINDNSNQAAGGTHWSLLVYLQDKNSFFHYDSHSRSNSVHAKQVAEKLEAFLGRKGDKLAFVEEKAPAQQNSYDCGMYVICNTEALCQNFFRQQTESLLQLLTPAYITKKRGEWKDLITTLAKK

Caspase-3 = molecular target: T2, Caspase-3 (Homo sapiens, UniProt P42574); test: SAR Analysis of small molecule inhibitors of Sentrin-specific proteases (SENPs) using a Caspase-3 Selectivity assay. [Related pubchem assays (depositor defined):AID2540, AID2599, AID434973, AID489001]
T2 sequence (P42574 whole entry): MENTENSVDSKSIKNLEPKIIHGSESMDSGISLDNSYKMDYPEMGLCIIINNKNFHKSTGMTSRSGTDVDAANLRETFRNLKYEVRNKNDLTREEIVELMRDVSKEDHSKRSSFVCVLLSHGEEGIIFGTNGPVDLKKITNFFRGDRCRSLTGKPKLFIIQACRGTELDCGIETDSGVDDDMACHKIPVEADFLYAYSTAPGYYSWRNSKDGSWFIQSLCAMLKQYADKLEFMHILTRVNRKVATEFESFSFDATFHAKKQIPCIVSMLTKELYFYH

[2] = molecular target: T3, Sentrin-specific protease 6 (Homo sapiens, UniProt Q9GZR1); test: SAR Analysis of small molecule inhibitors of Sentrin-specific protease 6 (SENP6) using a Luminescent assay. [Related pubchem assays (depositor defined):AID2582, AID2599]
T3 sequence (Q9GZR1 whole entry): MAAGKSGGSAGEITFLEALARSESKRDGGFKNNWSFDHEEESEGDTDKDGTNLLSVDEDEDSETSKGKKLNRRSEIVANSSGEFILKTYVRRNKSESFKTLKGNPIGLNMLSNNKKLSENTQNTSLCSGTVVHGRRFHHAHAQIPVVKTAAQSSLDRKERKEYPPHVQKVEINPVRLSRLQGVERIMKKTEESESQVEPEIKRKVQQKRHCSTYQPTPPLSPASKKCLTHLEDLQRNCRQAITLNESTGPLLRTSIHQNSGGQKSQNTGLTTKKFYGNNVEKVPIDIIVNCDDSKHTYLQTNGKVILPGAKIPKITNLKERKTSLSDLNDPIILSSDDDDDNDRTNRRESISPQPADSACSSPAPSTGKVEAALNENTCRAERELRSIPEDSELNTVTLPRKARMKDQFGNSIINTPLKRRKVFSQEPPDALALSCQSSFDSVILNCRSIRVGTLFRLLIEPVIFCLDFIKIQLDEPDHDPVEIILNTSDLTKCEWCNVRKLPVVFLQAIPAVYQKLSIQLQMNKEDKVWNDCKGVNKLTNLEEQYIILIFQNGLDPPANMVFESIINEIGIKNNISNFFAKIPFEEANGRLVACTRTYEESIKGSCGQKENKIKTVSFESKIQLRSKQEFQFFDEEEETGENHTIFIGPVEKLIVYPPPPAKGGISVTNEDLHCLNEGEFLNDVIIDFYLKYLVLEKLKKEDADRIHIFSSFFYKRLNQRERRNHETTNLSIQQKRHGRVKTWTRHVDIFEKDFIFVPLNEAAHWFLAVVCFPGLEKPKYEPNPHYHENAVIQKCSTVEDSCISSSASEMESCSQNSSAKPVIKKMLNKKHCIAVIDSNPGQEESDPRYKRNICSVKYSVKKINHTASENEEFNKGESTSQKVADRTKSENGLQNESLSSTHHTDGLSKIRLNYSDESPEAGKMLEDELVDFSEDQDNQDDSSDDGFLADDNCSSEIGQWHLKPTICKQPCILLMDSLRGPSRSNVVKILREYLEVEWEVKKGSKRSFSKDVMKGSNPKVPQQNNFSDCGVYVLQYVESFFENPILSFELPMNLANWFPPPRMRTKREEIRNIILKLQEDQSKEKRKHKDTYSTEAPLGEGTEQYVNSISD

[3] = molecular target: Dual specificity protein kinase CLK2 (Homo sapiens, UniProt P49760)
[4] = molecular target: Serine/threonine-protein kinase PAK 4 (Homo sapiens, UniProt O96013);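 also: value obtained within a kinome profiling panel in which PAK4 was one of the panel members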
[5] = molecular target: cAMP-dependent protein kinase catalytic subunit PRKX (Homo sapiens, UniProt P51817)
[6] = molecular target: Tyrosine-protein kinase Fyn (Homo sapiens, UniProt P06241)
[7] = molecular target: Mitogen-activated protein kinase 14 (Homo sapiens, UniProt Q16539);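 also: part of a kinome-wide panel, MAPK14 entry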
Chain of Mitogen-activated protein kinase 14 (Q16539 whole entry): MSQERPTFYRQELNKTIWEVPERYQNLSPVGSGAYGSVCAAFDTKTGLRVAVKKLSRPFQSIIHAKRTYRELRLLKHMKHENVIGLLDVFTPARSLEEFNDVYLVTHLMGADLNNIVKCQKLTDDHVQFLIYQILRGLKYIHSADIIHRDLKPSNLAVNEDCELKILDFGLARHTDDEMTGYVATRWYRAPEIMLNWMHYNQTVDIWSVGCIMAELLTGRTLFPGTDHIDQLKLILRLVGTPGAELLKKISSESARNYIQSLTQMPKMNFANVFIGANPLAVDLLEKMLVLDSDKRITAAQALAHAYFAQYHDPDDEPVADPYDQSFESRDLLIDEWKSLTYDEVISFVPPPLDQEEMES

Chain of Dual specificity protein kinase CLK2 (P49760 whole entry): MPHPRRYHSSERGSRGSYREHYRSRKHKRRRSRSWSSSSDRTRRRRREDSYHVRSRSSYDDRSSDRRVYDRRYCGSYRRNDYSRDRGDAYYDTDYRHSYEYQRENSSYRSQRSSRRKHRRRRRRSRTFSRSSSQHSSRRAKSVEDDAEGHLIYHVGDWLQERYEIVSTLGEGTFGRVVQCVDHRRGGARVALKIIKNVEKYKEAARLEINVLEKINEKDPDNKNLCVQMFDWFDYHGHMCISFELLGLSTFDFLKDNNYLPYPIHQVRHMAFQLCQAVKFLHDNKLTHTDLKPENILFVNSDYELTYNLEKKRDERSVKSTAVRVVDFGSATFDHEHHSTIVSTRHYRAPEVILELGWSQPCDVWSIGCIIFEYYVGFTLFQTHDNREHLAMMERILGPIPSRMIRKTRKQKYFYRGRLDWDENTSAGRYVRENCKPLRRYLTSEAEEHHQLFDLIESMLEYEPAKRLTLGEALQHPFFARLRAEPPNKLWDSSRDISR
Chain of cAMP-dependent protein kinase catalytic subunit PRKX (P51817 whole entry): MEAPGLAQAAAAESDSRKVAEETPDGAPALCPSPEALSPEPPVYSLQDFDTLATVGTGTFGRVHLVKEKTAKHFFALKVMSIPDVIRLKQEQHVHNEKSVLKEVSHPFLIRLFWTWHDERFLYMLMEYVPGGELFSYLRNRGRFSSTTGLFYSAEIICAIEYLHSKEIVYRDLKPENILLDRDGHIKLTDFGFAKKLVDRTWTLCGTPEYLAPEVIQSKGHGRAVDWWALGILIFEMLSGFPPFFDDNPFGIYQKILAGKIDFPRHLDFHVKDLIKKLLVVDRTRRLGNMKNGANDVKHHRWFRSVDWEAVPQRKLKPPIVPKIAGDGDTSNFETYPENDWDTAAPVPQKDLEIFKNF
Chain of Tyrosine-protein kinase Fyn (P06241 whole entry): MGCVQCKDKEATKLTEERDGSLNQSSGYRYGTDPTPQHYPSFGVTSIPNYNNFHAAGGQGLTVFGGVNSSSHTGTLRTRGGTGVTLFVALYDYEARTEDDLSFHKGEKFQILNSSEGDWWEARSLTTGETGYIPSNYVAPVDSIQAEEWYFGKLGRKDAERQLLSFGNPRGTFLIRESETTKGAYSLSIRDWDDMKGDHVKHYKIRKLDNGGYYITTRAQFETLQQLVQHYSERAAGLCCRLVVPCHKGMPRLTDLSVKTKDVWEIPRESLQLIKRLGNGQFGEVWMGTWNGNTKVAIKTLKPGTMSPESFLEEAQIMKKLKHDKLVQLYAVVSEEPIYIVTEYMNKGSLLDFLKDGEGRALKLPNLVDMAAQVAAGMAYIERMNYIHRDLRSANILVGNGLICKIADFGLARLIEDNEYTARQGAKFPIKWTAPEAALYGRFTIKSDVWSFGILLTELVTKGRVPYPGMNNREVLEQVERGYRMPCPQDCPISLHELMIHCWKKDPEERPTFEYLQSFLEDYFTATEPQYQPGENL
Chain of Serine/threonine-protein kinase PAK 4 (O96013 whole entry): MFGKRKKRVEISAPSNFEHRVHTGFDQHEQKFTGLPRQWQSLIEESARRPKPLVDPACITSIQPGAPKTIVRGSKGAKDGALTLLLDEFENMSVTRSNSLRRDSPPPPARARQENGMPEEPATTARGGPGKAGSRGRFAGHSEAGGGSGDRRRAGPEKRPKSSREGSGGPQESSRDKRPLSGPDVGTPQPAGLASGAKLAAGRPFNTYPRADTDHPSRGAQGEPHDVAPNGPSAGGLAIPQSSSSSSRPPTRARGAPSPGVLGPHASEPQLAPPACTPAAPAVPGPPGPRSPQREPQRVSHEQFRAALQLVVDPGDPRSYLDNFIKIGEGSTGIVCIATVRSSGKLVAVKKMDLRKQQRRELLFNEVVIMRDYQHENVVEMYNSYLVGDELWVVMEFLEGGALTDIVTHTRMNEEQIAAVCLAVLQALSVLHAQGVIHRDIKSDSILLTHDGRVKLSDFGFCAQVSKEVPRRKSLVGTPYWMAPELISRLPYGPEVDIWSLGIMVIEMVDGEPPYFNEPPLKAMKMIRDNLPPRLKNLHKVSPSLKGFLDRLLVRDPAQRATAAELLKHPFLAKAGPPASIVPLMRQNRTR

SMILES | IC50 [1] | IC50 (Caspase-3) | IC50 [2] | Ki [3] | Ki [4] | Ki [5] | Ki [6] | Ki [7]
COc1cc2cc(NC(C)=O)cc(NCc3ccccc3)c2cc1OC | > 99 µM (inactive) | > 99 µM (inactive) | 40.4 µM (active) | – | – | – | – | –
CN(C)c1cc(N/N=C\c2ccccc2)nc(N(C)C)n1 | 31.7 µM (active) | 79.3 µM (active) | 11.3 µM (active) | – | – | – | – | –
O=C1Nc2cc(-c3ccc(O)cc3)ccc2C1=Cc1ccc[nH]1 | – | – | – | > 3.98 µM (inactive) | > 5.01 µM (inactive) | 2 µM (active) | > 6.31 µM (inactive) | 2.51 µM (active)
NC(COc1cncc(-c2ccc3c(c2)C(=Cc2ccc[nH]2)C(=O)N3)c1)Cc1ccccc1 (stereo unspecified) | – | – | – | 0.000794 µM (active) | 0.0316 µM (active) | 0.0398 µM (active) | 0.398 µM (active) | 0.631 µM (active)
